Entries after “also recorded” stand apart in the source; their conditions may differ.
Key:
NMDAR [1] = conditions: NMDA 20 mg/kg i.p. 1 and 2 days after CHI; assessed 7 and 14 days postinjury (P=0.05 and 0.016)
From the text: Trauma Model. We used 8- to 12-week-old male Sabra mice (30-35 g) kept under controlled temperature and light conditions with food and water available ad libitum. The study was approved by the Institutional Animal Care Committee of the Hebrew University. Experimental CHI was induced by using a modified weight-drop device developed in our laboratory (Chen et al., J. Neurotrauma 13, 557-568 (1996); Yatziv et al., J. Cereb. Blood Flow Metab. 22, 971-978 (2002)). Briefly, after induction of ether anesthesia, a midline longitudinal incision was performed, the skin was retracted and the skull was exposed. The left anterior frontal area was identified and a Teflon tipped cone (2-mm diameter) was placed 1 mm lateral to the midline, in the midcoronal plane. The head was held in place manually and a 75-g weight was dropped on the cone from a height of 18 cm, resulting in a focal injury to the left hemisphere. After trauma, the mice received supporting oxygenation with 95% O2 for no longer than 2 min and were then returned to their cages. […]
(§1) Drug Treatments. […] The three groups were repeatedly evaluated for neurobehavioral deficits over a 2-week period (see below). […] Cognitive function was evaluated in head-injured and intact […] administered with either NMDA 20 mg/kg or saline 24 and again 48 h postinjury and tested 14 days later for performance in the object recognition test (see below).

NMDAR [2] = experiment: Object recognition test 14 days after CHI; assay type: in vivo, mice; conditions: for Percent of exploration time at the novel object: 4 h after baseline; for Proportion of time exploring two objects at baseline: baseline with two identical objects
From the text: Trauma Model. We used 8- to 12-week-old male Sabra mice (30-35 g) kept under controlled temperature and light conditions with food and water available ad libitum. The study was approved by the Institutional Animal Care Committee of the Hebrew University. Experimental CHI was induced by using a modified weight-drop device developed in our laboratory (Chen et al., J. Neurotrauma 13, 557-568 (1996); Yatziv et al., J. Cereb. Blood Flow Metab. 22, 971-978 (2002)). Briefly, after induction of ether anesthesia, a midline longitudinal incision was performed, the skin was retracted and the skull was exposed. The left anterior frontal area was identified and a Teflon tipped cone (2-mm diameter) was placed 1 mm lateral to the midline, in the midcoronal plane. The head was held in place manually and a 75-g weight was dropped on the cone from a height of 18 cm, resulting in a focal injury to the left hemisphere. After trauma, the mice received supporting oxygenation with 95% O2 for no longer than 2 min and were then returned to their cages. Sham controls received anesthesia and skin incision only. For autoradiographic studies, groups of four to five animals per time point were killed 15 min, 1, 4, 8, or 24 h, or 7 days postinjury and brains were quickly removed and frozen on dry ice.
as §1
Evaluation of Performance in the Object Recognition Test. The object recognition test was performed as originally described by Ennaceur and Delacour (Ennaceur & Delacour, Behav. Brain Res. 31, 47-59 (1988)). In the first part of the test (14 days after CHI) mice were placed in the testing cage (a glass aquarium-like transparent box of 60×60 cm) for 1 h habituation. On the following day they were put back into the same cage with two identical objects. The cumulative time spent by the mouse at each of the objects was recorded manually during a 5-min interval by an observer blinded to the treatment received. Four hours later, the mice were reintroduced into the cage, where one of the two objects was replaced by a new one. The time (of 5 min total) spent at each of the objects was recorded. The basic measure is the percent of the total time spent by mice in exploring an object during the testing period, whereby normal healthy rodents will spend relatively more time exploring a new object than a familiar, i.e., “memorized” object.

intact mice = experiment: NMDA dose-response experiment in intact mice (tolerability); conditions: i.p.

CN[C@H](CC(=O)O)C(=O)O [NMDA, N-methyl-D-aspartate]
dNSS (extent of neurological recovery) compared to vehicle-treated CHI mice (NMDAR [1]): significantly higher; also recorded: significantly accelerated | Object recognition performance compared to vehicle-treated CHI animals (NMDAR [2]; CHI mice, NMDA 20 mg/kg 24 and 48 h postinjury, 14 days after CHI (P<0.0001)): significantly higher percentage; also recorded: significantly better | Percent of exploration time at the novel object (NMDAR [2]; CHI mice, NMDA 20 mg/kg 24 and 48 h postinjury, tested 14 days after CHI): ≈ 70% | Proportion of time exploring two objects at baseline (NMDAR [2]; CHI+NMDA group): ≈ 50% | Effect on object recognition performance of intact (naive) animals (NMDAR [2]; intact animals, NMDA 20 mg/kg): no effect | Percent of exploration time at the novel object (NMDAR [2]; intact mice treated with NMDA 20 mg/kg): ≈ 70% | Proportion of time exploring two objects at baseline (NMDAR [2]; naive+NMDA group): ≈ 50% | Doses at which significant mortality was observed (intact mice; doses tested between 20 and 100 mg/kg): above 60 mg/kg | Behavioural effects and mortality at the lowest dose (intact mice; lowest dose of 20-100 mg/kg range (20 mg/kg)): hyperactivity and some stereotypy but no convulsions or mortality

Source: patent publication US20060167099A1, “Use of compositions that increase glutamate receptor activity in treatment of brain injury” (priority 2004, published 2006)
